We go through 1 compound from PMC10747602, “Dose Response, Dosimetric, and Metabolic Evaluations of Replacement PFAS Perfluoro-(2,5,8-trimethyl-3,6,9-trioxadodecanoic) Acid (HFPO-TeA)” (Toxics, 2023).

Molecules are shown by their SMILES. Where two headings read alike, the source gives them in different places. Some results are limits rather than exact numbers.

Data set [1] relates to Thyroid hormones T3, rT3, and T4. The experiment in a line: Plasma thyroid hormone assessment. The class given is in vivo, Sprague Dawley rats. As to conditions: 5 days. On the procedure:
Information on the chemicals used in the plasma thyroid hormone analysis can be found in Supplementary Text S2 and Table S3. Thyroid hormones T3, rT3, and T4 were extracted from 20 µL of plasma (5 days) following the procedure outlined by O’Shaughnessy et al.. Briefly, plasma was spiked with internal standards ^13C6-T3, ^13C6-rT3, and ^13C6-T4, and extracted using Evolute CX SPE plates (10 mg, 1 mL, Biotage, Charlotte, NC, USA). Extracts were eluted using a positive pressure manifold. Refer to Supplementary Text S2 for complete details of the extraction method.
Targeted, quantitative analysis of the thyroid hormone levels was conducted using a 6500+ QTRAP liquid chromatography/mass spectrometer system (Sciex, Framingham, MA, USA) operated in positive ion multiple reaction monitoring (MRM) scan mode with electrospray ionization (ESI). […] Gradient elution was obtained using eluent A (0.1% formic acid; FA (aqueous)) and eluent B (MeOH with 0.1% FA). The gradient used is found in Table S4. Additional instrument parameters can be found in Table S5 and monitored transitions in Table S6. Statistical analysis is described in Supplementary Text S3. […]
Support ing Text S1: Chemicals
Chemicals used for solvent and mobile phases include methanol (MeOH), water (H2O), and acetonitrile (ACN) which were LC/MS grade and purchased from Honeywell Burdick & Jackson (Charlotte, NC, USA). Ethanol (EtOH) used as a solvent was ACS grade and purchased from Honeywell Burdick & Jackson. Ammonium formate (BioUltra purity) and ammonium acetate (99% pure) were used as mobile phase additives and obtained from Millipore Sigma (St. Louis, MO, USA). Formic acid (FA; 97.5% pure) was also used as an additive; it was purchased from Honeywell Fluka (Charlotte, NC, USA).
Detailed information for chemicals used for each analysis may be found in Table S1.
Support ing Text S2: Thyroid Hormone Chemicals and Analysis
3,3’,5-Triiodothyronine (Chemical Abstract Service Registry Number (CASRN) 6893-02-3 | U.S.
Environmental Protection Agency (U.S. EPA) Distributed Structure-Searchable Toxicity (DSSTox) substance identifier (DTXSID) DTXSID8023216 | T3; ˃ 99% pure), mass-labeled 3,3’,5-triiodothyronine […]
98% pure), mass-labeled 3,3’,5’-triiodothyronine hydrochloride (13C6-rT3; ˃ 99% pure), L-thyroxine […]
pure) were purchased from Cerilliant Corporation (Round Rock, Texas, USA).
Briefly, a 20 µL aliquot of plasma from each sample was loaded into individual wells of a 96-well collection plate. They were spiked with 5 µL of a 40 ng/mL 13C6-T3, 13C6-rT3 and 13C6-T4 mixed solution followed by 1N hydrochloric acid (HCl) (20 µL) (36.5-38%, Fisher Scientific. Waltham, MA, USA), H2O (100 µL), and a 50:50 H2O/ACN solution (vol/vol) (60 µL) containing 0.1% formic acid (FA). Samples were vortexed, incubated at 37 °C for 2 hours, and brought to room temperature. They were diluted with an aqueous 0.1% acetic acid solution (LC/MS grade, Honeywell Fluka) and vortexed. The SPE well plates (Evolute CX, 96-well SPE plate, 10 mg, 1 mL, Biotage, Charlotte, NC, USA), processed with a positive pressure manifold, were conditioned with methanol followed by an aqueous 0.1% acetic acid solution prior to sample loading with low pressure. Plate wells were washed with 0.1% acetic acid followed by methanol. Thyroid hormones were eluted into a collection plate with 2.5% ammonium hydroxide (NH4OH) (28-30%, Thermo Fisher Scientific, Waltham, MA, USA) in methanol. Extracts were then evaporated to dryness with nitrogen using a Turbovap (Biotage) then reconstituted in 100 µL of 25:75 ACN/H2O (vol/vol) with 0.1% acetic acid. Extracts were stored in amber micro-sampling vials (Agilent Technologies, Santa Clara, CA, USA) prior to instrumental analysis.
Samples were quantitated against matrix-matched calibration curves containing a minimum of 5 points spanning the range 0.005 – 25.00 ng/mL. Calibration standards were made by combining T3, rT3, and T4 analytes with the 13C6-T3, 13C6-rT3, and 13C6-T4 internal standards then with commercial rat […]

On the set-up of data set [2]: method as in PMID 35436088. As to conditions: male mice, cited from earlier work.

Take `O=C(O)C(F)(OC(F)(F)C(F)(OC(F)(F)C(F)(OC(F)(F)C(F)(F)C(F)(F)F)C(F)(F)F)C(F)(F)F)C(F)(F)F` (stereo not drawn) [HFPO-TeA, perfluoro-(2,5,8-trimethyl-3,6,9-trioxadodecanoic) acid]: the “rT3 Conc. in plasma” value is on record as “< LOQ” in data set [1] (0.3 mg/kg/day, F, individual rats, LOQ 0.005 ng/mL); “< LOQ” in data set [1] (0.3 mg/kg/day, M, individual rats, LOQ 0.005 ng/mL); “< LOQ” in data set [1] (0.9 mg/kg/day, F, individual rats, LOQ 0.005 ng/mL); “<LOQ” in data set [1] (0.9 mg/kg/day, F, mean ± SD of replicates above LOQ (0.005 ng/mL)); “< LOQ” in data set [1] (0.9 mg/kg/day, M, individual rats, LOQ 0.005 ng/mL); “< LOQ” in data set [1] (0.9 mg/kg/day, M, mean ± SD of replicates above LOQ (0.005 ng/mL)). Besides, the “rT3 Conc. in plasma” value in data set [1] (2.3 mg/kg/day, F, individual rats, LOQ 0.005 ng/mL) is “< LOQ”; in data set [1] (2.3 mg/kg/day, M, individual rats, LOQ 0.005 ng/mL) it was “< LOQ”; in data set [1] (6.3 mg/kg/day, F, individual rats, LOQ 0.005 ng/mL), “< LOQ”; in data set [1] (6.3 mg/kg/day, M, individual rats, LOQ 0.005 ng/mL) it was “< LOQ”; in data set [1] (17 mg/kg/day, F, individual rats, LOQ 0.005 ng/mL), “< LOQ”; in data set [1] (17 mg/kg/day, M, individual rats, LOQ 0.005 ng/mL), “< LOQ”. Moreover, the “experimental Kp” value is “approximately 20” in data set [2] (0.02 mg/kg/day for 7 days), about 40 in data set [2] (0.2 mg/kg/day for 7 days) and about 5 in data set [2] (2 mg/kg/day for 7 days).
